This is an account of results in paper PMC9583330, “Quinazoline-4(3H)-one-7-carboxamide Derivatives as Human Soluble Epoxide Hydrolase Inhibitors with Developable 5-Lipoxygenase Activating Protein Inhibition” (ACS Omega, 2022).

One may read the IC50 as the concentration that inhibits the measured activity by half. One may read the melting point as the temperature of the solid-liquid transition. Usually remaining activity stands for the share of the control activity or signal that is left under treatment.

Data set [1] addresses T1, Human recombinant sEH (Homo sapiens, UniProt P34913).
T1 construct: made in house; host or cells: Sf9 insect cells, recombinant baculovirus from Dr. B. Hammock
T1 sequence (P34913 1-555): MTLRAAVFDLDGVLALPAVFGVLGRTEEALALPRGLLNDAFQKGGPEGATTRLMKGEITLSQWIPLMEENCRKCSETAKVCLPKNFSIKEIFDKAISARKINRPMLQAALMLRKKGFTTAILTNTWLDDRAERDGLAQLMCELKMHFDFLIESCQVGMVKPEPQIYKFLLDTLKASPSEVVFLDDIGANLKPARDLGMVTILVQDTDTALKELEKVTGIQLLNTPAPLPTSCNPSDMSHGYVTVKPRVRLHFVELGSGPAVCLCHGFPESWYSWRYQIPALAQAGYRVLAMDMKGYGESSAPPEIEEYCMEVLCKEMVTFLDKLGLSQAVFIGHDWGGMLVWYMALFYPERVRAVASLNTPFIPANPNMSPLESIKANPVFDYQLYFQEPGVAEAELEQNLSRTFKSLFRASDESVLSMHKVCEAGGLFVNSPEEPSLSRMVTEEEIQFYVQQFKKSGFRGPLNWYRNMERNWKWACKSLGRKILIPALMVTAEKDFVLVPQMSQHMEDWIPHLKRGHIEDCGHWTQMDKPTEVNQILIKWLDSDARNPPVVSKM
Also noted: method as in PMID 32045233. To be noted: previously identified compound; cited from earlier work.

Data set [2] deals with FLAP-mediated cellular LT formation in human neutrophils. Also noted: method as in PMID 32045233. The conditions noted are these: previously identified; read-out: IC50, inhibition of cellular leukotriene (LT) biosynthesis by targeting FLAP; cited from earlier work.
Data set [3] concerns the target T1, Human recombinant sEH. As to the kind of experiment: sEH cell-free fluorescence-based assay (PHOME substrate). It is filed as biochemical. The conditions noted are these: means ± SEM, n = 3; for IC50: cell-free assay, human sEH; for remaining activity at 10 µM: residual activity at 10 μM, control = vehicle 100%. The method, then: Human recombinant sEH was expressed and purified as reported before.[46] In brief, Sf9 cells were infected with a recombinant baculovirus (kindly provided by Dr. B. Hammock, University of California, Davis, CA). Seventy-two hours post-transfection, cells were pelleted and sonicated (3 × 10 s at 4 °C) in lysis buffer containing NaHPO4 (50 mM, pH 8), NaCl (300 mM), glycerol (10%), EDTA (1 mM), phenylmethanesulfonyl fluoride (1 mM), leupeptin (10 μg/mL), and a soybean trypsin inhibitor (60 μg/mL). Supernatants after centrifugation at 100,000 × g (60 min, 4 °C) were subjected to benzylthio-sepharose-affinity chromatography in order to purify sEH by elution with 4-fluorochalcone oxide in PBS containing 1 mM DTT and 1 mM EDTA. Dialyzed and concentrated (Millipore Amicon-Ultra-15 centrifugal filter) enzyme solution was assayed for total protein with a Bio-Rad protein detection kit (Bio-Rad Laboratories, Munich, Germany), and the epoxide hydrolase activity was determined by using a fluorescence-based assay as described before.[47] Shortly, sEH was diluted in Tris buffer (25 mM, pH 7) supplemented with BSA (0.1 mg/mL) to an appropriate enzyme concentration and preincubated with test compounds or vehicle (0.1% DMSO) for 10 min at room temperature (RT). The reaction was started by the addition of 50 μM 3-phenyl-cyano(6-methoxy-2-naphthalenyl)methyl ester-2-oxiraneacetic acid (PHOME), a nonfluorescent compound that is enzymatically converted into fluorescent 6-methoxy-naphtaldehyde at RT. After 60 min, reactions were stopped by ZnSO4 (200 mM) and fluorescence was detected (λem 465 nm, λex 330 nm) using a NOVOstar microplate reader (BMG Labtech GmbH, Ortenberg, Germany), and potential fluorescence of test compounds was subtracted from the read-out, if required.

For data set [4], the system named is FLAP-mediated cellular LT formation in human neutrophils. Description: FLAP-dependent 5-LO product formation in intact neutrophils. The data set is classed as cell-based. To be noted: Neutrophil; for IC50: Homo sapiens, intact neutrophils challenged with 2.5 μM ionophore plus 20 μM arachidonic acid; for activity at 1 µM: 1 μM inhibitor, read-out: 5-LO product formation in neutrophils, remaining activity (% of control) at 1 μM; for activity at 1 µM / activity at 10 µM: human neutrophils, 2.5 μM Ca2+-ionophore A23187, means ± SEM, n = 4–5; for activity at 10 µM: 10 μM inhibitor, read-out: 5-LO product formation in neutrophils, remaining activity (% of control) at 10 μM. The method, then:
Neutrophils were isolated from leukocyte concentrates obtained from freshly withdrawn peripheral blood of healthy adult male and female donors which were provided by the Institute of Transfusion Medicine, University Hospital Jena, Germany. The experimental protocol was approved by the ethical committee of the University Hospital Jena, and all methods were performed in accordance with the relevant guidelines and regulations. The leukocyte concentrates were mixed with dextran (from Leuconostoc spp. MW ∼40,000, Sigma Aldrich) for sedimentation of erythrocytes, and the supernatant was centrifuged on lymphocyte separation medium (Histopaque-1077, Sigma Aldrich). Contaminating erythrocytes in the pelleted neutrophils were removed by hypotonic lysis using distilled water. The neutrophils were washed twice in ice-cold PBS pH 7.4 and finally resuspended in PBS pH 7.4 plus 1 mg/mL glucose (PGC buffer).
Human neutrophils [5 × 10^6; in PGC buffer; incubation volume, 1 mL] were preincubated with 0.1% DMSO (vehicle) or with the compounds at 37 °C for 15 min. […] Samples were then subjected to solid-phase extraction on C18-columns (100 mg, UCT, Bristol, PA), and 5-LO products (LTB4 and its trans-isomers, and 5-H(p)ETE) were extracted and analyzed in the presence of internal standard PGB1 by RP-HPLC and UV detection as reported elsewhere.[45]

Read-outs that look alike come from different tables or passages of the source.

In the case of `O=C(O)c1ccc2c(=O)n(Cc3ccccc3)c(SCc3ccc(Cl)c(Cl)c3)nc2c1` [Compound 5], the “activity against sEH (in words)” value in data set [1] is listed as “without any activity against sEH”. In data set [2], the IC50 was 0.87 µM.

For the compound `CC(C)(C)CNC(=O)c1ccc2c(=O)[nH]c(SCc3ccc(Cl)cc3)nc2c1` [Compound 36, 2-((4-Chlorobenzyl)thio)-N-neopentyl-4-oxo-3,4-dihydroquinazoline-7-carboxamide], the melting point is 220 to 222 °C. The 50% inhibitory concentration (IC50) in data set [3] was 1.1 ± 0.1 µM. In data set [4], the IC50 was less than 10 µM, the activity at 1 µM amounted to 89.5 ± 8.9% and the activity at 10 µM amounted to 29.7 ± 7.2%.

`CC(C)(C)CNC(=O)c1ccc2c(=O)[nH]c(SCc3ccccc3C(F)(F)F)nc2c1` [Compound 37, 2-((2-(Trifluoromethyl)benzyl)thio)-N-Neopentyl-4-oxo-3,4-dihydroquinazoline-7-carboxamide]: the melting point lay within 217.9 to 219.3 °C. Also, the IC50 in data set [3] came out at 0.5 ± 0.05 µM. Further, in data set [4], the IC50 is less than 10 µM, the activity at 1 µM is 97.6 ± 4% and the activity at 10 µM was found to be 20.9 ± 12.1%.

Regarding `CC(C)(C)CNC(=O)c1ccc2c(=O)[nH]c(SCc3ccc(Cl)c(Cl)c3)nc2c1` [Compound 38, 2-((3,4-Dichlorobenzyl)thio)-N-neopentyl-4-oxo-3,4-dihydroquinazoline-7-carboxamide], the melting point was 215.5 to 216.9 °C. The IC50 in data set [3] was 1.6 ± 0.1 µM. In addition, in data set [4], the IC50 was less than 10 µM, the activity at 1 µM turned out to be 105 ± 3.1% and the activity at 10 µM stood at 34.9 ± 10.6%.

As to `CC(C)NC(=O)c1ccc2c(=O)[nH]c(SCc3ccccc3Cl)nc2c1` [Compound 45, 2-((2-Chlorobenzyl)thio)-N-isopropyl-4-oxo-3,4-dihydroquinazoline-7-carboxamide], the melting point was 306.3 °C (dec.). In data set [3], the IC50 was greater than 10 µM and the remaining activity at 10 µM worked out at 71%. In addition, in data set [4], the IC50 is greater than 10 µM, the activity at 1 µM was determined as 96.6 ± 6.7% and the activity at 10 µM stood at 70.3 ± 21.4%.

For `CC(C)(C)CNC(=O)c1ccc2c(=O)[nH]c(NCc3ccccc3Cl)nc2c1` [Compound 55, 2-((2-Chlorobenzyl)amino)-N-neopentyl-4-oxo-3,4-dihydroquinazoline-7-carboxamide], the melting point lay in the range of 176.7 to 178.7 °C. In data set [3], the IC50 is greater than 10 µM and the remaining activity at 10 µM turned out to be 68%. In addition, in data set [4], the IC50 was found to be 2.7 ± 0.8 µM, the activity at 1 µM worked out at 77.9 ± 12.1% and the activity at 10 µM came to 8.9 ± 3.6%.
